# Measured values published in patent US11337990B2, “Human milk oligosaccharides to promote growth of beneficial bacteria” (ABBOTT LABORATORIES, priority 2010, dated 2022).
# Entries after “also recorded” stand apart in the source; their conditions may differ.
# Key:
# [1] = system: infant fecal bacteria; assay: In vitro substrate fermentation model with infant feces (pH, SCFA, lactate); format: cell-based, human infant
# [2] = system: Bifidobacterium spp.; assay: qPCR of bacterial populations in in vitro fecal fermentation; format: cell-based; details: overall, 0-12 h fermentation; sodium salt
# [3] = system: bifidobacteria strains; assay: Bacterial growth assay (OD600), panel of 12 strains; format: cell-based, Bifidobacterium; details: 1% carbohydrate in sMRS+cysteine
# Method: (§1) Coy Laboratory Products, Grass Lake, Mich.). Subsequently, the cultures are passed twice on a semi-synthetic MRS medium ([…] which is supplemented with 1% (w/v) filter-sterilized glucose as the sole carbohydrate source. […] For bifidobacteria strains, the same procedure is followed except all media are supplemented with 0.5 g/l L-cysteine/HCl. [table] After the 2nd pass in sMRS+glucose+cysteine, the cultures are washed once with 10 mL of sterile sMRS+cysteine (no carbohydrate), resuspended in 10 ml of sterile sMRS+cysteine (no carbohydrate) and then used as a 1% inoculum. The carbohydrates are sterilized with a 0.22 micron filter and used at a 1% final concentration. Cell growth is performed in 250 μL of sMRS+cysteine covered with 50 μL of mineral oil in a Bioscreen 100-well Honeycomb plate. […] The plate reader is operated in discontinuous mode, with absorbance readings performed in 30-minute intervals, and preceded by 30-second shaking intervals at maximum speed. Controls consist of inoculated medium lacking carbohydrate. […] All three plates include a positive control (glucose) and negative control (no carbohydrate). The OD600 data for each carbohydrate is corrected by subtracting the OD600 of the basal media (sMRS)+cysteine from the sample plate for each probiotic. Maximum OD is determined by inspection of the corrected growth data. OD is determined by subtracting the initial corrected OD (time point 0) from the maximum corrected OD. Samples are grown in biologically independent triplicates and the resulting growth kinetic data are expressed as the mean of these replicates. For the growth curve plots, OD600 vs. time is first plotted for the bacteria grown on medium lacking carbohydrate (sMRS). For all other carbohydrates, the OD600 data is corrected by subtracting the OD600 of sMRS.
# [4] = system: B. infantis ATCC 15697; assay: Bacterial growth assay (OD600); format: cell-based, Bifidobacterium infantis; details: 1% carbohydrate in sMRS+cysteine
# Method: as §1
# [5] = system: B. infantis M-63; assay: Bacterial growth assay (OD600); format: cell-based, Bifidobacterium infantis; details: 1% carbohydrate in sMRS+cysteine
# Method: as §1
# [6] = system: HT-29 cells; assay: HT-29 cell proliferation, BrdU assay; format: cell-based, human; details: Example 48: LNnT or 2′FL 20, 200, 2000 mg/L; 6′SL 40, 400; 72 hours; sodium salt
# Method: In a first experiment, HT-29 cells, which model the immature epithelial cells of the small intestine, are incubated in a humidified atmosphere of 5% carbon dioxide at 37 C in the presence of LNnT at concentrations of 0 mg/L (“0”), 100 mg/L (“100”), 200 mg/L (“200”), and 400 mg/L (“400”) for either 48 hours or 72 hours. The culture medium utilized is Dulbecco's Modified Eagle Medium (Life Technologies, Foster City Calif.) supplemented with 10% fetal calf serum and 2 mM glutamine. The control consists of a combination of 91.5 mg lactose and 62.4 mg galactosamine (“LG”) per Liter of the Dulbecco's Modified Eagle Medium set forth above. The impact of the LNnT at various levels and the control on HT-29 cell proliferation is measured using a conventional BrdU assay, which measures the number of cells that have recently synthesized DNA.
# (§2) In a first experiment, HT-29 cells, which model the immature epithelial cells of the small intestine, are incubated in a humidified atmosphere of 5% carbon dioxide at 37° C. in the presence of LNnT or 2′FL at concentrations of 0 mg/L (“0”), 20 mg/L (“20”), 200 mg/L (“200”), and 2000 mg/L (“2000”) or in the presence of 6′SL at concentrations of 0 mg/mL (“0”), 40 mg/mL (“40”), 400 mg/mL (“400”), and 4000 mg/mL (“4000”) for 72 hours. The culture medium utilized is Dulbecco's Modified Eagle Medium (Life Technologies, Foster City Calif.) supplemented with 10% fetal calf serum and 2 mM glutamine. The controls (“energy”) consist of 91.5 mg lactose and 64.2 mg N-acetyllactosamine/L for LNnT; 133 mg lactose and 67 mg fucose/L for 2′FL; and 195 mg lactose and 205 mg/L sialic acid for 6′SL. The impact of the LNnT, 2′FL, and 6′SL at various levels and the controls on HT-29 cell proliferation is measured using a conventional BrdU assay, which measures the number of cells that have recently synthesized DNA. […] Additionally, the impact of LNnT, 2′FL, and 6′SL at various levels and the controls on the alkaline phosphatase activity per milligram of protein for HT-29 cells, which is an indicator of cell differentiation, is measured.
# [7] = system: HT-29 cells; assay: Alkaline phosphatase activity per milligram of protein (cell differentiation), HT-29; format: cell-based, human; details: Example 48: LNnT or 2′FL 20, 200, 2000 mg/L; 6′SL 40, 400; 72 hours
# Method: as §2
# [8] = system: Caco-2 cells; assay: Alkaline phosphatase activity per milligram of protein (cell differentiation), Caco-2; format: cell-based, human; details: Example 48: LNnT or 2′FL 20, 200, 2000 mg/L; 6′SL 40, 400, 4000 mg/mL; 72 hours
# Method: In a second experiment, Caco-2 cells, which model more mature epithelial cells of the small intestine, are incubated in a humidified atmosphere of 5% carbon dioxide at 37° C. in the presence of LNnT or 2′FL at concentrations of 0 mg/L (“0”), 20 mg/L (“20”), 200 mg/L (“200”), and 2000 mg/L (“2000”) or in the presence of 6′SL at concentrations of 0 mg/mL (“0”), 40 mg/mL (“40”), 400 mg/mL (“400”), and 4000 mg/mL (“4000”) for 72 hours. The culture medium utilized is Dulbecco's Modified Eagle Medium (Life Technologies, Foster City Calif.) supplemented with 10% fetal calf serum and 2 mM glutamine. The controls (“energy”) consist of 91.5 mg lactose and 64.2 mg N-acetyllactosamine/L for LNnT; 133 mg lactose and 67 mg fucose/L for 2′FL; and 195 mg lactose and 205 mg sialic acid/L for 6′SL. The impact of the LNnT, 2′FL, and 6′SL at various levels and the control on Caco-2 cell proliferation is measured using a conventional BrdU assay, which measures the number of cells that have recently synthesized DNA. […] Additionally, the impact of LNnT, 2′FL, and 6′SL at various levels and the controls on the alkaline phosphatase activity per milligram of protein for Caco-2 cells, which is an indication of cell differentiation, is measured.
# [9] = system: B. breve ATCC 15700; assay: Bacterial growth assay (OD600); format: cell-based, Bifidobacterium breve; details: 1% carbohydrate in sMRS+cysteine
# Method: Coy Laboratory Products, Grass Lake, Mich.). Subsequently, the cultures are passed twice on a semi-synthetic MRS medium ([…] which is supplemented with 1% (w/v) filter-sterilized glucose as the sole carbohydrate source. […] For bifidobacteria strains, the same procedure is followed except all media are supplemented with 0.5 g/l L-cysteine/HCl. […] After the 2nd pass in sMRS+glucose+cysteine, the cultures are washed once with 10 mL of sterile sMRS+cysteine (no carbohydrate), resuspended in 10 ml of sterile sMRS+cysteine (no carbohydrate) and then used as a 1% inoculum. The carbohydrates are sterilized with a 0.22 micron filter and used at a 1% final concentration. Cell growth is performed in 250 μL of sMRS+cysteine covered with 50 μL of mineral oil in a Bioscreen 100-well Honeycomb plate. […] The plate reader is operated in discontinuous mode, with absorbance readings performed in 30-minute intervals, and preceded by 30-second shaking intervals at maximum speed. Controls consist of inoculated medium lacking carbohydrate. […] Maximum OD is determined by inspection of the corrected growth data. OD is determined by subtracting the initial corrected OD (time point 0) from the maximum corrected OD. Samples are grown in biologically independent triplicates and the resulting growth kinetic data are expressed as the mean of these replicates. […]
compound,measurement,setting,value
"CC(=O)N[C@H]1C([C@H](O)[C@H](O)CO)O[C@@](OCC2O[C@@H](O[C@@H]3C(CO)OC(O)C(O)[C@H]3O)C(O)[C@@H](O)[C@H]2O)(C(=O)[O-])C[C@H]1O.[Na+] (stereo in doubt) [6′SL, α-(2-6′)-N-Acetylneuraminyl-lactose sodium salt]",fermentation rate,[1],"about 1,809 μg/g of dry matter/hour"
same,acetate production,[1]; 3 and 6 h,intermediate
same,"acetate production, formula fed versus breast fed infants",[1]; 12 h,greater
same,propionate production,[1]; 12 h of fermentation,large increase
same,total SCFA production,"[1]; 12 h of fermentation, sodium salt",greater (P<0.05); also recorded: substantial amounts of SCFA
same,total SCFA production,[1]; after 3 and 6 h of fermentation,lower (P<0.05) with 6′SL compared to GOS
same,"total SCFA production, formula fed versus breast fed infants",[1]; after 6 and 12 h of fermentation,greater (P=0.01) fermentation by formula fed infants
same,propionate production,[1]; overall,greater (P<0.0001) propionate production than all other substrates
same,fermentability by infant fecal bacteria,"[1]; overall, sodium salt",highly fermentable; also recorded: readily fermented
same,lactate accumulation,"[1]; up to 12 h, sodium salt",no lactate accumulation; also recorded: little lactate had accumulated
same,bifidobacteria populations,[2],may also be bifidogenic; also recorded: tended to generally increase bifidobacteria levels
same,growth / ability to ferment (OD600),[3],only B. infantis ATCC 15697 and B. infantis M-63 are able to ferment
same,growth / ability to ferment (OD600),[4],able to ferment
same,growth / ability to ferment (OD600),[5],able to ferment
same,HT-29 cell proliferation,[6],capable of reducing cell proliferation at higher doses; also recorded: inhibits intestinal cell proliferation in immature epithelial cells
same,alkaline phosphatase activity per milligram of protein (cell differentiation),[7],no apparent effect
same,alkaline phosphatase activity per milligram of protein (cell differentiation),[8],no apparent effect
"CC(=O)N[C@H]1[C@H]([C@H](O)[C@H](O)CO)O[C@@](O[C@H]2[C@@H](O)[C@@H](CO)O[C@@H](O[C@H]3[C@H](O)[C@@H](O)C(O)O[C@@H]3CO)[C@@H]2O)(C(=O)O)C[C@@H]1O (stereo partly drawn) [3′SL, 3′-Sialyllactose]",growth / ability to ferment (OD600),[3],only B. infantis ATCC 15697 and B. infantis M-63 are able to ferment
same,growth / ability to ferment (OD600),[4],able to ferment
same,growth / ability to ferment (OD600),[5],able to ferment
"C[C@H](O)[C@@H](O)[C@@H](O)[C@H](O)C=O [L-fucose, reference compound]",growth / ability to ferment (OD600),[3],None of the bifidobacteria are able to ferment
same,growth / ability to ferment (OD600),[4],not able to ferment
same,growth / ability to ferment (OD600),[5],not able to ferment
"CC(=O)N[C@@H]1[C@@H](O)[C@H](O)[C@@H](CO)O[C@H]1O [NAG, reference compound]",growth / ability to ferment (OD600),[3],Only B. breve ATCC 15700 is able to ferment
same,growth / ability to ferment (OD600),[9],able to ferment
O=C(CO)[C@@H](O)[C@H](O)[C@H](O)CO [fructose],growth / ability to ferment (OD600),[3],majority of bifidobacteria is able to ferment
OC[C@H]1O[C@@H](O[C@H]2[C@H](O)[C@@H](O)C(O)O[C@@H]2CO)[C@H](O)[C@@H](O)[C@H]1O (stereo partly drawn) [lactose],growth / ability to ferment (OD600),[3],"the bifidobacteria, which is not able to ferment galactose, also has reduced growth on lactose"
